Results taken from ChEMBL document CHEMBL1201862, “PubChem BioAssay data set” (2004).
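Growth conditions: 96-well plates. Treatment: test compound, 48 hours, 5 concentrations. Analysis: linear interpolation between bracketing concentrations; unreached endpoints set to highest concentration. GI50: concentration for 50% inhibition of growth.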 Active and inactive are the calls of the source. No stated cut-off is given here; in the data, active = GI50 up to about 1.1 µM and inactive = higher.

Legend:
Test in all cases: NCI tumour cell line growth inhibition, 48 h
DMS-273 = system: DMS-273
KM-20L2 = system: KM-20L2
RXF 393 = system: RXF 393
K562 = system: K562
HT-29 = system: HT-29
M19-MEL = system: M19-MEL
COLO 205 = system: COLO 205
MOLT-4 = system: MOLT-4
SN12C = system: SN12C
M14 = system: M14
SK-OV-3 = system: SK-OV-3
SW-620 = system: SW-620
HOP-18 = system: HOP-18
HOP-62 = system: HOP-62
SK-MEL-28 = system: SK-MEL-28
OVCAR-4 = system: OVCAR-4
SNB-19 = system: SNB-19
SNB-75 = system: SNB-75
Malme-3M = system: Malme-3M
786-0 = system: 786-0
LXFL 529 = system: LXFL 529
A549 = system: A549
SF-539 = system: SF-539
SK-MEL-2 = system: SK-MEL-2
HL-60 = system: HL-60
HOP-92 = system: HOP-92
UO-31 = system: UO-31
OVCAR-8 = system: OVCAR-8
NCI-H460 = system: NCI-H460
UACC-62 = system: UACC-62
CCRF-CEM = system: CCRF-CEM
U-251 = system: U-251
A498 = system: A498
SF-295 = system: SF-295
HCT-15 = system: HCT-15
RPMI-8226 = system: RPMI-8226
EKVX = system: EKVX
CAKI-1 = system: CAKI-1
KM12 = system: KM12
NCI-H23 = system: NCI-H23
LOX IMVI = system: LOX IMVI
ACHN = system: ACHN
SK-MEL-5 = system: SK-MEL-5
OVCAR-5 = system: OVCAR-5
DLD-1 = system: DLD-1
NCI-H226 = system: NCI-H226
NCI-H522 = system: NCI-H522
IGROV-1 = system: IGROV-1
TK-10 = system: TK-10
SF-268 = system: SF-268
SNB-78 = system: SNB-78
UACC-257 = system: UACC-257
XF498 = system: XF498
HCC 2998 = system: HCC 2998
DMS-114 = system: DMS-114
HCT-116 = system: HCT-116
RXF 631 = system: RXF 631
SR = system: SR
OVCAR-3 = system: OVCAR-3

In the case of `O=C1Nc2cc(F)ccc2C1=O`, the GI50 (DMS-273) is reported as > 100 µM (inactive), the GI50 (KM-20L2) is reported as > 100 µM (inactive) and the GI50 (RXF 393) is reported as > 100 µM (inactive). For the same compound, the GI50 (K562) was > 100 µM (inactive), the GI50 (HT-29) was > 100 µM (inactive) and the GI50 (M19-MEL) was > 100 µM (inactive). For the same compound, the GI50 (COLO 205) was 72.3 µM (inactive), the GI50 (MOLT-4) was > 100 µM (inactive) and the GI50 (SN12C) was > 100 µM (inactive). The GI50 (M14) was > 100 µM (inactive), the GI50 (SK-OV-3) was > 100 µM (inactive) and the GI50 (SW-620) was 73.3 µM (inactive). For the same compound, the GI50 (HOP-18) was > 100 µM (inactive), the GI50 (HOP-62) was > 100 µM (inactive) and the GI50 (SK-MEL-28) was > 100 µM (inactive). The GI50 (OVCAR-4) was > 100 µM (inactive), the GI50 (SNB-19) was > 100 µM (inactive) and the GI50 (SNB-75) was > 100 µM (inactive). The GI50 (Malme-3M) was > 100 µM (inactive), the GI50 (786-0) was > 100 µM (inactive) and the GI50 (LXFL 529) was > 100 µM (inactive). For the same compound, the GI50 (A549) was > 100 µM (inactive), the GI50 (SF-539) was > 100 µM (inactive) and the GI50 (SK-MEL-2) was > 100 µM (inactive). The GI50 (HL-60) was > 100 µM (inactive), the GI50 (HOP-92) was > 100 µM (inactive) and the GI50 (UO-31) was > 100 µM (inactive). The GI50 (OVCAR-8) was > 100 µM (inactive), the GI50 (NCI-H460) was > 100 µM (inactive) and the GI50 (UACC-62) was > 100 µM (inactive). The GI50 (CCRF-CEM) was > 100 µM (inactive), the GI50 (U-251) was > 100 µM (inactive) and the GI50 (A498) was > 100 µM (inactive). The GI50 (SF-295) was > 100 µM (inactive), the GI50 (HCT-15) was over 100 µM and the GI50 (RPMI-8226) was > 100 µM (inactive). For the same compound, the GI50 (EKVX) was > 100 µM (inactive), the GI50 (CAKI-1) was > 100 µM (inactive) and the GI50 (KM12) was > 100 µM (inactive). The GI50 (NCI-H23) was > 100 µM (inactive), the GI50 (LOX IMVI) was > 100 µM (inactive) and the GI50 (ACHN) was > 100 µM (inactive). For the same compound, the GI50 (SK-MEL-5) was > 100 µM (inactive), the GI50 (OVCAR-5) was > 100 µM (inactive) and the GI50 (DLD-1) was > 100 µM (inactive). The GI50 (NCI-H226) was > 100 µM (inactive), the GI50 (NCI-H522) was 60.7 µM (inactive) and the GI50 (IGROV-1) was > 100 µM (inactive). For the same compound, the GI50 (TK-10) was > 100 µM (inactive), the GI50 (SF-268) was > 100 µM (inactive) and the GI50 (SNB-78) was > 100 µM (inactive). The GI50 (UACC-257) was > 100 µM (inactive), the GI50 (XF498) was > 100 µM (inactive) and the GI50 (HCC 2998) was > 100 µM (inactive). The GI50 (DMS-114) was 50.8 µM (inactive).
In the case of `Cc1ncc(CCl)c(CCl)c1O`, the GI50 (DMS-273) is reported as > 100 µM (inactive), the GI50 (K562) is reported as > 100 µM (inactive) and the GI50 (M19-MEL) is reported as > 100 µM (inactive). The GI50 (COLO 205) was > 100 µM (inactive), the GI50 (MOLT-4) was > 100 µM (inactive) and the GI50 (SN12C) was > 100 µM (inactive). For the same compound, the GI50 (M14) was > 100 µM (inactive), the GI50 (SK-OV-3) was > 100 µM (inactive) and the GI50 (HCT-116) was > 100 µM (inactive). The GI50 (HOP-62) was > 100 µM (inactive), the GI50 (SK-MEL-28) was > 100 µM (inactive) and the GI50 (OVCAR-4) was > 100 µM (inactive). The GI50 (SNB-75) was > 100 µM (inactive), the GI50 (Malme-3M) was > 100 µM (inactive) and the GI50 (786-0) was > 100 µM (inactive). For the same compound, the GI50 (LXFL 529) was > 100 µM (inactive), the GI50 (SF-539) was > 100 µM (inactive) and the GI50 (SK-MEL-2) was > 100 µM (inactive). For the same compound, the GI50 (HL-60) was > 100 µM (inactive), the GI50 (HOP-92) was > 100 µM (inactive) and the GI50 (RXF 631) was > 100 µM (inactive). For the same compound, the GI50 (UO-31) was > 100 µM (inactive), the GI50 (UACC-62) was > 100 µM (inactive) and the GI50 (CCRF-CEM) was > 100 µM (inactive). For the same compound, the GI50 (A498) was > 100 µM (inactive), the GI50 (RPMI-8226) was > 100 µM (inactive) and the GI50 (CAKI-1) was > 100 µM (inactive). The GI50 (NCI-H23) was > 100 µM (inactive), the GI50 (ACHN) was > 100 µM (inactive) and the GI50 (DLD-1) was > 100 µM (inactive). The GI50 (NCI-H226) was > 100 µM (inactive), the GI50 (SR) was > 100 µM (inactive) and the GI50 (NCI-H522) was > 100 µM (inactive). The GI50 (IGROV-1) was > 100 µM (inactive), the GI50 (SF-268) was > 100 µM (inactive) and the GI50 (XF498) was > 100 µM (inactive). For the same compound, the GI50 (HCC 2998) was > 100 µM (inactive) and the GI50 (DMS-114) was > 100 µM (inactive).
For `C/C(CC(=O)Nc1cc(C)ccc1C)=N\NC(=O)c1ccncc1`, the GI50 (KM-20L2) was > 100 µM (inactive), the GI50 (RXF 393) was > 100 µM (inactive) and the GI50 (K562) was > 100 µM (inactive). The GI50 (HT-29) was > 100 µM (inactive), the GI50 (M19-MEL) was > 100 µM (inactive) and the GI50 (COLO 205) was > 100 µM (inactive). For the same compound, the GI50 (MOLT-4) was > 100 µM (inactive), the GI50 (M14) was > 100 µM (inactive) and the GI50 (SK-OV-3) was > 100 µM (inactive). For the same compound, the GI50 (SW-620) was > 100 µM (inactive), the GI50 (HCT-116) was > 100 µM (inactive) and the GI50 (HOP-62) was > 100 µM (inactive). The GI50 (SK-MEL-28) was > 100 µM (inactive), the GI50 (SNB-75) was > 100 µM (inactive) and the GI50 (Malme-3M) was > 100 µM (inactive). For the same compound, the GI50 (786-0) was > 100 µM (inactive), the GI50 (LXFL 529) was > 100 µM (inactive) and the GI50 (A549) was > 100 µM (inactive). For the same compound, the GI50 (SF-539) was > 100 µM (inactive), the GI50 (SK-MEL-2) was > 100 µM (inactive) and the GI50 (HL-60) was > 100 µM (inactive). The GI50 (HOP-92) was 79.6 µM (inactive), the GI50 (RXF 631) was > 100 µM (inactive) and the GI50 (UO-31) was > 100 µM (inactive). The GI50 (OVCAR-8) was > 100 µM (inactive), the GI50 (NCI-H460) was > 100 µM (inactive) and the GI50 (UACC-62) was > 100 µM (inactive). The GI50 (CCRF-CEM) was > 100 µM (inactive), the GI50 (U-251) was > 100 µM (inactive) and the GI50 (SF-295) was > 100 µM (inactive). The GI50 (RPMI-8226) was > 100 µM (inactive), the GI50 (EKVX) was > 100 µM (inactive) and the GI50 (KM12) was > 100 µM (inactive). The GI50 (NCI-H23) was > 100 µM (inactive), the GI50 (LOX IMVI) was > 100 µM (inactive) and the GI50 (SK-MEL-5) was > 100 µM (inactive). For the same compound, the GI50 (OVCAR-5) was > 100 µM (inactive), the GI50 (OVCAR-3) was > 100 µM (inactive) and the GI50 (DLD-1) was > 100 µM (inactive). For the same compound, the GI50 (NCI-H226) was > 100 µM (inactive), the GI50 (NCI-H522) was 78 µM (inactive) and the GI50 (IGROV-1) was > 100 µM (inactive). For the same compound, the GI50 (TK-10) was > 100 µM (inactive), the GI50 (SF-268) was > 100 µM (inactive) and the GI50 (SNB-78) was > 100 µM (inactive). The GI50 (UACC-257) was > 100 µM (inactive) and the GI50 (HCC 2998) was > 100 µM (inactive).
